{"source": "paper PMC4965013", "about": "“Open Source Drug Discovery with the Malaria Box Compound Collection for Neglected Diseases and Beyond” (PLoS Pathogens, 2016)", "key": {"P. falciparum 3D7": {"tested_on": "P. falciparum 3D7", "experiment": "[3H]-hypoxanthine growth inhibition, modified HCO3- or O2", "format": "cell-based", "settings": "for IC50: Plasmodium falciparum"}, "[1]": {"tested_on": "Naegleria fowleri trophozoites", "experiment": "Naegleria fowleri CellTiter-Glo", "format": "cell-based", "settings": "Naegleria fowleri", "text": "Columns CY-CZ: Kyle group (data presented first in this paper). Naegleria fowleri trophozoite growth inhibition. Methods: The CellTiter-Glo (CTG) 2.0 luminescent assay is a quantitative assay that assesses the presence of cellular ATP in lysed cells, displaying an output in Relative Light Units (RLU’s). This was previously standardised, for the growth and development of Naegleria fowleri trophozoites in-vitro to assess drug susceptibility on this parasite. […] These included two drug-like molecules MMV665807 (St. Jude’s Children’s Hospital) and MMV665979 (The Genomics Institute of the Novartis Research Foundation - GNF) and two Probe-like molecules, MMV006203 (GNF) & MMV006172 (GNF; GlaxoSmithKline - GSK). […] However, these Malaria Box compounds were all toxic to zebrafish and mammalian cells."}, "[2]": {"tested_on": "P. falciparum 3D7 trophozoites", "experiment": "Metabolomic fingerprint profiling LC-MS", "format": "cell-based, Plasmodium falciparum", "set-up": "UDP-D-glucose / ADP-D-glucose: unit not given here"}, "P. falciparum": {"tested_on": "P. falciparum", "experiment": "EC50 listed in S2 Table Metabolomics (used to set the concentration tested)", "format": "cell-based", "settings": "Plasmodium falciparum; EC50 used for Factor_XEC50 in metabolomics; read-out: EC50_nM"}, "[3]": {"tested_on": "P. falciparum NF54 late-stage gametocytes", "settings": "ref [61]; cited from earlier work"}, "[4]": {"settings": "metabolite level change after treatment"}}, "note": "Like-named read-outs stand apart in the source and are kept apart here.", "data": [{"smiles": "Cc1cc(NCCN2CCCCC2)c2ccc3ccccc3c2n1", "note": "[MMV006203]", "values": [{"measurement": "fold change (IC50normal/ IC50hypoxia)", "setting": "P. falciparum 3D7", "value": 3.7}, {"measurement": "IC50", "setting": "P. falciparum 3D7; 3D7, read-out: P. falciparum 3D7 IC50 1% O2, 1% O2 hypoxia", "value": 132, "unit": "nM"}, {"measurement": "IC50", "setting": "P. falciparum 3D7; 3D7, read-out: P. falciparum 3D7 IC50 5% O2", "value": 489, "unit": "nM"}, {"measurement": "EC50", "setting": "[1]", "value": 420, "unit": "nM"}, {"measurement": "Acetyllysine", "setting": "[2]; S2 Table Metabolomics, metabolite Acetyllysine", "value": 0.08786}, {"measurement": "N-acetyl-L-ornithine", "setting": "[2]; S2 Table Metabolomics, metabolite N-acetyl-L-ornithine", "value": 0.002896}, {"measurement": "N-carbamoyl-L-aspartate", "setting": "[2]; S2 Table Metabolomics, metabolite N-carbamoyl-L-aspartate", "value": 0.4112}, {"measurement": "NADPH", "setting": "[2]; S2 Table Metabolomics, metabolite NADPH", "value": 0.03038}, {"measurement": "dAMP", "setting": "[2]; S2 Table Metabolomics, metabolite dAMP", "value": 0.7397}, {"measurement": "dCMP", "setting": "[2]; S2 Table Metabolomics, metabolite dCMP", "value": 0.2991}, {"measurement": "dTDP", "setting": "[2]; S2 Table Metabolomics, metabolite dTDP", "value": 0.8216}, {"measurement": "dTMP", "setting": "[2]; S2 Table Metabolomics, metabolite dTMP", "value": 0.8444}, {"measurement": "dTTP", "setting": "[2]; S2 Table Metabolomics, metabolite dTTP", "value": 0.2113}, {"measurement": "dihydroorotate", "setting": "[2]; S2 Table Metabolomics, metabolite dihydroorotate", "value": 0.4914}, {"measurement": "orotate", "setting": "[2]; S2 Table Metabolomics, metabolite orotate", "value": 0.1057}, {"measurement": "DLH", "setting": "[2]; S2 Table Metabolomics, peptide DLH", "value": -0.3111}, {"measurement": "DLS/SDL/SID", "setting": "[2]; S2 Table Metabolomics, peptide DLS/SDL/SID", "value": -0.5497}, {"measurement": "PD", "setting": "[2]; S2 Table Metabolomics, peptide PD", "value": -0.2642}, {"measurement": "PEE", "setting": "[2]; S2 Table Metabolomics, peptide PEE", "value": -0.1431}, {"measurement": "PVNF", "setting": "[2]; S2 Table Metabolomics, peptide PVNF", "value": -0.3001}, {"measurement": "3-phosphoglycerate", "setting": "[2]; metabolite 3-phosphoglycerate, S2 Table Metabolomics", "value": -0.2573}, {"measurement": "ADP-D-glucose", "setting": "[2]; metabolite ADP-D-glucose, S2 Table Metabolomics", "value": 0.2156}, {"measurement": "ATP", "setting": "[2]; metabolite ATP, S2 Table Metabolomics", "value": -0.6838}, {"measurement": "CDP", "setting": "[2]; metabolite CDP, S2 Table Metabolomics, change in metabolite level after compound treatment", "value": 0.8402}, {"measurement": "D-sedoheptulose-1/7-phosphate", "setting": "[2]; metabolite D-sedoheptulose-1/7-phosphate, S2 Table Metabolomics, change in metabolite level after compound treatment", "value": 0.9147}, {"measurement": "FAD", "setting": "[2]; metabolite FAD, S2 Table Metabolomics", "value": 0.06173}, {"measurement": "GMP", "setting": "[2]; metabolite GMP, S2 Table Metabolomics, change in metabolite level after compound treatment", "value": -0.5622}, {"measurement": "NAD+", "setting": "[2]; metabolite NAD+, S2 Table Metabolomics", "value": -0.01124}, {"measurement": "NADP+", "setting": "[2]; metabolite NADP+, S2 Table Metabolomics", "value": 0.01586}, {"measurement": "Octoluse Bisphosphate", "setting": "[2]; metabolite Octoluse Bisphosphate, S2 Table Metabolomics, change in metabolite level after compound treatment", "value": -0.09172}, {"measurement": "Pyroglutamic acid", "setting": "[2]; metabolite Pyroglutamic acid, S2 Table Metabolomics", "value": -0.7767}, {"measurement": "UDP-D-glucose", "setting": "[2]; metabolite UDP-D-glucose, S2 Table Metabolomics", "value": 0.04255}, {"measurement": "UDP-D-glucuronate", "setting": "[2]; metabolite UDP-D-glucuronate, S2 Table Metabolomics", "value": -0.09689}, {"measurement": "UDP-N-acetyl-glucosamine", "setting": "[2]; metabolite UDP-N-acetyl-glucosamine, S2 Table Metabolomics", "value": 0.1138}, {"measurement": "UDP", "setting": "[2]; metabolite UDP, S2 Table Metabolomics, change in metabolite level after compound treatment", "value": 0.8936}, {"measurement": "UMP", "setting": "[2]; metabolite UMP, S2 Table Metabolomics, change in metabolite level after compound treatment", "value": -0.4956}, {"measurement": "UTP", "setting": "[2]; metabolite UTP, S2 Table Metabolomics, change in metabolite level after compound treatment", "value": -0.4083}, {"measurement": "a-ketoglutarate", "setting": "[2]; metabolite a-ketoglutarate, S2 Table Metabolomics", "value": -0.4253}, {"measurement": "citrate/isocitrate", "setting": "[2]; metabolite citrate/isocitrate, S2 Table Metabolomics, change in metabolite level after compound treatment", "value": -0.3127}, {"measurement": "cytidine", "setting": "[2]; metabolite cytidine, S2 Table Metabolomics", "value": -0.1848}, {"measurement": "dATP", "setting": "[2]; metabolite dATP, S2 Table Metabolomics", "value": -0.6172}, {"measurement": "dGMP/AMP", "setting": "[2]; metabolite dGMP/AMP, S2 Table Metabolomics, change in metabolite level after compound treatment", "value": 0.6443}, {"measurement": "fumarate", "setting": "[2]; metabolite fumarate, S2 Table Metabolomics, change in metabolite level after compound treatment", "value": -0.3628}, {"measurement": "glucose-1/6-phosphate", "setting": "[2]; metabolite glucose-1/6-phosphate, S2 Table Metabolomics, change in metabolite level after compound treatment", "value": 0.2347}, {"measurement": "glycerate", "setting": "[2]; metabolite glycerate, S2 Table Metabolomics, change in metabolite level after compound treatment", "value": -0.4315}, {"measurement": "guanine", "setting": "[2]; metabolite guanine, S2 Table Metabolomics, change in metabolite level after compound treatment", "value": 0.07764}, {"measurement": "guanosine", "setting": "[2]; metabolite guanosine, S2 Table Metabolomics, change in metabolite level after compound treatment", "value": -0.09005}, {"measurement": "hypoxanthine", "setting": "[2]; metabolite hypoxanthine, S2 Table Metabolomics", "value": -0.3483}, {"measurement": "indole", "setting": "[2]; metabolite indole, S2 Table Metabolomics", "value": -0.1837}, {"measurement": "inosine", "setting": "[2]; metabolite inosine, S2 Table Metabolomics, change in metabolite level after compound treatment", "value": -0.08456}, {"measurement": "2_3-Diphosphoglyceric acid", "setting": "[2]; [4]", "value": 0.4386}, {"measurement": "4-phosphopantothenate", "setting": "[2]; [4]", "value": 0.2283}, {"measurement": "6-phospho-D-gluconate", "setting": "[2]; [4]", "value": 0.1112}, {"measurement": "FMN", "setting": "[2]; [4]", "value": 0.1526}, {"measurement": "IMP", "setting": "[2]; [4]", "value": 0.332}, {"measurement": "Pyrophosphate", "setting": "[2]; [4]", "value": 0.424}, {"measurement": "Sedoheptoluse bisphosphate", "setting": "[2]; [4]", "value": -0.2408}, {"measurement": "cyclic-AMP", "setting": "[2]; [4]", "value": -0.2974}, {"measurement": "glutathione disulfide", "setting": "[2]; [4]", "value": 0.042}, {"measurement": "lactate", "setting": "[2]; [4]", "value": -0.2642}, {"measurement": "myo-inositol", "setting": "[2]; [4]", "value": -0.268}, {"measurement": "nicotinate", "setting": "[2]; metabolite nicotinate, S2 Table Metabolomics", "value": -0.1416}, {"measurement": "ornithine", "setting": "[2]; metabolite ornithine, S2 Table Metabolomics", "value": -0.3267}, {"measurement": "phosphoenolpyruvate", "setting": "[2]; metabolite phosphoenolpyruvate, S2 Table Metabolomics", "value": -0.2017}, {"measurement": "pyruvate", "setting": "[2]; metabolite pyruvate, S2 Table Metabolomics, change in metabolite level after compound treatment", "value": -0.1834}, {"measurement": "ribose-phosphate", "setting": "[2]; metabolite ribose-phosphate, S2 Table Metabolomics", "value": -0.417}, {"measurement": "sarcosine/alanine", "setting": "[2]; metabolite sarcosine/alanine, S2 Table Metabolomics, change in metabolite level after compound treatment", "value": 0.1849}, {"measurement": "sn-glycerol-3-phosphate", "setting": "[2]; metabolite sn-glycerol-3-phosphate, S2 Table Metabolomics", "value": -0.1322}, {"measurement": "succinate/methylmalonic acid", "setting": "[2]; metabolite succinate/methylmalonic acid, S2 Table Metabolomics, change in metabolite level after compound treatment", "value": -0.1409}, {"measurement": "uridine", "setting": "[2]; metabolite uridine, S2 Table Metabolomics, change in metabolite level after compound treatment", "value": -0.04629}, {"measurement": "xanthosine", "setting": "[2]; metabolite xanthosine, S2 Table Metabolomics, change in metabolite level after compound treatment", "value": -0.705}, {"measurement": "EC50", "setting": "P. falciparum", "value": 300, "unit": "nM"}]}, {"smiles": "CCN(CC)CCn1c(=N)n(CC(O)c2ccc(Cl)c(Cl)c2)c2ccccc21", "note": "(stereo not shown) [MMV000248]", "values": [{"measurement": "IC50", "setting": "[3]", "value": "< 350", "unit": "nM"}]}]}
